Assay results reported in patent publication US9845292B2 (Max-Planck-Gesellschaft zur Förderung der Wissenschaften …, priority 2013, dated 2017).
Read-outs that look alike come from different tables or passages of the source.

Assays:
FKBP52 = biological target: T1, FKBP52 (Homo sapiens, UniProt Q02790); assay: Fluorescence polarization binding assay, FK1-domain of FKBP52WT with tracer F2 (selectivity FKBP51 vs. FKBP52); conditions: selectivity factor over FKBP52
T1 construct: Purified FK1-domains of FKBP51WT (4.5 nM) with F4 (3 nM), FKBP52WT (400 nM) with F2 (20 nM); implied by Ni-NTA purification) (N); made in house; host or cells: E. coli BL21(DE3)pLysS
T1 sequence (Q02790 50-138 limits assumed): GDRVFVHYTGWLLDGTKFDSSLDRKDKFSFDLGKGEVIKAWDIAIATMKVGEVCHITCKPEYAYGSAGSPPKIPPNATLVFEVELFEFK
Procedure, shortened: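 Compounds titrated against FK1 domain of FKBP52 WT with fluorescent tracer F2, in duplicate; competition curves fitted to four-parameter logistic for IC50. Ki derived from exact competitive-binding equation using tracer Kd; selectivity expressed as Ki(FKBP51)/Ki(FKBP52).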

FKBP51 = biological target: T2, FKBP51 (Homo sapiens, UniProt Q13451); assay: Fluorescence polarization binding assay, FK1-domain of FKBP51WT with tracer F4; design: Purified FK1-domains of FKBP51WT (4.5 nM) with F4 (3 nM), FKBP52WT (400 nM) with F2 (20 nM); made in house; host or cells: E. coli BL21(DE3)pLysS; conditions: read-out: Affinity(Ki) for FKBP51
T2 sequence (Q13451 42-130 limits assumed): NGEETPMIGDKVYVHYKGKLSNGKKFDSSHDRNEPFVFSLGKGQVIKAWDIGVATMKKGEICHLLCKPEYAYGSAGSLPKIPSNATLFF
Procedure, shortened: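 Competitive fluorescence polarization with tracer F4 and FKBP51 FK1 domain (wild type), compounds titrated by serial dilution from DMSO stock, run in duplicate. IC50 from four-parameter logistic fit; inhibition constants from an exact competitive-binding equation using tracer and inhibitor Kd values.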

[1] = FKBP52WT (400 nM) with F2 (20 nM), A series
[2] = FK1-domain of FKBP51WT (4.5 nM) with F4 (3 nM), A series

Row | SMILES | Ki(FKBP51)/Ki(FKBP52) (FKBP52; compounds B01-C25) | Ki (FKBP51; compounds B01-C25) [µM] | Ki(FKBP51)/Ki(FKBP52) (FKBP52; [1]) | Ki (FKBP51; [2]) [µM]
1 | COc1cc([C@@H](C(=O)N2CCCC[C@H]2C(=O)OC2CC=CC2)C2CCCCC2)cc(OC)c1OC [Compound C14, (S)-cyclopent-3-en-1-yl-1-((S)-2-cyclohexyl-2-(3,4,5-trimethoxyphenyl)acetyl) piperidine-2-carboxylate] | +++ (>500 +++) | 1 to 10 |  | 
2 | C=CC[C@H](C(=O)N1CC=CC[C@H]1C(=O)O[C@H](CCc1ccc(OC)c(OC)c1)c1cccc(OCCN2CCOCC2)c1)c1cc(OC)c(OC)c(OC)c1 [Compound A06] |  |  | + (>5 +) | 10 to 50
3 | COc1ccc(OCCOC(=O)[C@@H]2CCCCN2C(=O)[C@H](c2cc(OC)c(OC)c(OC)c2)C2C=CCCC2)cc1OC (stereo in doubt) [Compound A14, (S)-2-(3,4-Dimethoxyphenoxy)ethyl-1-((S)-2-((R)-cyclohex-2-en-1-yl)-2-(3,4,5-trimethoxyphenyl)acetyl)piperidine-2-carboxylate] |  |  | ++ (>50 ++) | 0.1 to 1
4 | COc1ccc(CC[C@@H](OC(=O)[C@@H]2CCCCN2C(=O)[C@H](c2cc(OC)c(OC)c(OC)c2)[C@@H]2C=CCCC2)c2cccc(OCC(=O)O)c2)cc1OC [Compound A11, 2-(3-((R)-1-(((S)-1-((S)-2-((S)-Cyclohex-2-en-1-yl)-2-(3,4,5-trimethoxyphenyl)acetyl)piperidine-2-carbonyl)oxy)-3-(3,4-dimethoxyphenyl)propyl)phenoxy) acetic acid] |  |  | +++ (>500 +++) | < 0.1
5 | COc1cc([C@@H](C(=O)N2CCCC[C@H]2C(=O)NC2(C(N)=O)CCC2)C2CCCCC2)cc(OC)c1OC [Compound B27, (S)-N-(1-carbamoylcyclobutyl)-1-((S)-2-cyclohexyl-2-(3,4,5-trimethoxyphenyl)acetyl)piperidine-2-carboxamide] | ++ (>50 ++) | 1 to 10 |  | 
6 | COc1cc([C@@H](C(=O)N2CCCC[C@H]2C(=O)N[C@H](CO)C(N)=O)C2CCCCC2)cc(OC)c1OC [Compound B21, (S)-N-((R)-1-amino-3-hydroxy-1-oxopropan-2-yl)-1-((S)-2-cyclohexyl-2-(3,4,5-trimethoxyphenyl)acetyl)piperidine-2-carboxamide] | ++ (>50 ++) | 1 to 10 |  | 
7 | COc1cc([C@@H](C(=O)N2CCCC[C@H]2C(=O)N[C@H](CCC(N)=O)C(N)=O)C2CCCCC2)cc(OC)c1OC [Compound B24, (R)-2-((S)-1-((S)-2-cyclohexyl-2-(3,4,5-trimethoxyphenyl)acetyl)piperidine-2-carboxamido)pentanediamide] | ++ (>50 ++) | 1 to 10 |  | 
8 | COCCOC(=O)[C@@H]1CCCCN1C(=O)[C@H](c1cc(OC)c(OC)c(OC)c1)C1CCCCC1 [Compound C18, (S)-2-methoxyethyl-1-((S)-2-cyclohexyl-2-(3,4,5-trimethoxyphenyl)acetyl) piperidine-2-carboxylate] | ++ (>50 ++) | 1 to 10 |  | 
9 | CCCOC(=O)[C@@H]1CCCCN1C(=O)[C@H](c1cc(OC)c(OC)c(OC)c1)C1CCCCC1 [Compound C03, (S)-propyl 1-((S)-2-cyclohexyl-2-(3,4,5-trimethoxyphenyl)acetyl)piperidine-2-carboxylate] | +++ (>500 +++) | 1 to 10 |  | 
10 | COc1cc([C@@H](C(=O)N2CCCC[C@H]2C(=O)OC2C=CCCC2)C2CCCCC2)cc(OC)c1OC (mixture of isomers) [Compound C15, (2S)-cyclohex-2-en-1-yl-1-((S)-2-cyclohexyl-2-(3,4,5-trimethoxyphenyl)acetyl) piperidine-2-carboxylate] | ++ (>50 ++) | 1 to 10 |  | 
11 | COc1cc([C@@H](C(=O)N2CCCC[C@H]2C(=O)N[C@@H](CC(C)C)C(N)=O)C2CCCCC2)cc(OC)c1OC [Compound B30, (S)-N-((S)-1-amino-4-methyl-1-oxopentan-2-yl)-1-((S)-2-cyclohexyl-2-(3,4,5-trimethoxyphenyl)acetyl)piperidine-2-carboxamide] | ++ (>50 ++) | 1 to 10 |  | 
12 | CCC(CC)OC(=O)[C@@H]1CCCCN1C(=O)[C@H](c1cc(OC)c(OC)c(OC)c1)C1CCCCC1 [Compound C09, (S)-pentan-3-yl-1-((S)-2-cyclohexyl-2-(3,4,5-trimethoxyphenyl)acetyl)piperidine-2-carboxylate] | ++ (>50 ++) | 10 to 50 |  | 
13 | COc1cc([C@@H](C(=O)N2CCCC[C@H]2C(=O)OC2CCCCCC2)C2CCCCC2)cc(OC)c1OC [Compound C16, (S)-cycloheptyl-1-((S)-2-cyclohexyl-2-(3,4,5-trimethoxyphenyl)acetyl)piperidine-2-carboxylate] | ++ (>50 ++) | 10 to 50 |  | 
14 | CC[C@H](C)[C@H](NC(=O)[C@@H]1CCCCN1C(=O)[C@H](c1cc(OC)c(OC)c(OC)c1)C1CCCCC1)C(N)=O [Compound B14, (S)-N-((2S,3S)-1-amino-3-methyl-1-oxopentan-2-yl)-1-((S)-2-cyclohexyl-2-(3,4,5-trimethoxyphenyl)acetyl)piperidine-2-carboxamide] | ++ (>50 ++) | 1 to 10 |  | 
15 | COc1ccc(CCC(OC(=O)C2CCCCN2C(=O)[C@H](c2cc(OC)c(OC)c(OC)c2)[C@@H]2C=CCCC2)c2cccc(OCCN3CCOCC3)c2)cc1OC (stereo in doubt) [Compound A12, (S)-(R)-3-(3,4-Dimethoxyphenyl)-1-(3-(2-morpholinoethoxy)phenyl)propyl-1-((S)-2-((S)-cyclohex-2-en-1-yl)-2-(3,4,5-trimethoxyphenyl)acetyl)piperidine-2-carboxylate] |  |  | +++ (>500 +++) | < 0.1
16 | COc1cc([C@@H](C(=O)N2CCCC[C@H]2C(=O)N[C@@H](CC2CCCCC2)C(N)=O)C2CCCCC2)cc(OC)c1OC [Compound B07, (S)-N-((S)-1-amino-3-cyclohexyl-1-oxopropan-2-yl)-1-((S)-2-cyclohexyl-2-(3,4,5-trimethoxyphenyl)acetyl)piperidine-2-carboxamide] | + (>5 +) | 10 to 50 |  | 
17 | COc1ccc(CCC(OC(=O)[C@@H]2CCCCN2C(=O)C(NC(=O)c2ccccn2)C2CCCCC2)c2cccc(OCC(=O)O)c2)cc1OC (stereo partly drawn) [Compound A25, 2-(3-(1-(((2S)-1-(2-cyclohexyl-2-(picolinamido)acetyl)piperidine-2-carbonyl)oxy)-3-(3,4-dimethoxyphenyl)propyl)phenoxy) acetic acid] |  |  | + (>5 +) | 10 to 50
18 | COc1cc([C@@H](C(=O)N2CCCC[C@H]2C(=O)O)C2CCCCC2)cc(OC)c1OC [Compound C06, (S)-1-((S)-2-cyclohexyl-2-(3,4,5-trimethoxyphenyl)acetyl)piperidine-2-carboxylic acid] | + (>5 +) | 10 to 50 |  | 
19 | CC[C@@H](C)[C@@H](NC(=O)[C@@H]1CCCCN1C(=O)[C@H](c1cc(OC)c(OC)c(OC)c1)C1CCCCC1)C(N)=O [Compound B15, (S)-N-((2R,3R)-1-amino-3-methyl-1-oxopentan-2-yl)-1-((S)-2-cyclohexyl-2-(3,4,5-trimethoxyphenyl)acetyl)piperidine-2-carboxamide] | ++ (>50 ++) | 1 to 10 |  | 
20 | COc1ccc(CCC(OC(=O)C2CCCN2C(=O)[C@H](c2cc(OC)c(OC)c(OC)c2)C2C=CCCC2)c2cccc(OCCN3CCOCC3)c2)cc1OC (stereo in doubt) [Compound A15, (S)-(R)-3-(3,4-dimethoxyphenyl)-1-(3-(2-morpholinoethoxy)phenyl)propyl-1-((S)-2-((R)-cyclohex-2-en-1-yl)-2-(3,4,5-trimethoxyphenyl)acetyl)pyrrolidine-2-carboxylate] |  |  | +++ (>500 +++) | < 0.1
